Earlier results as cited in article PMC9516332 (Frontiers in Oncology, 2022).
Where two headings read alike, the source gives them in different places.

Experiments:
Conditions in all cases: cited from earlier work
[1] = biological target: panel of 255 wild-type kinases (Homo sapiens, UniProt P17948)
[2] = biological target: panel of 255 wild-type kinases (Homo sapiens, UniProt Q86V86)
[3] = biological target: T1, panel of 255 wild-type kinases (Homo sapiens, UniProt Q96L34)
T1 sequence (Q96L34 1-752): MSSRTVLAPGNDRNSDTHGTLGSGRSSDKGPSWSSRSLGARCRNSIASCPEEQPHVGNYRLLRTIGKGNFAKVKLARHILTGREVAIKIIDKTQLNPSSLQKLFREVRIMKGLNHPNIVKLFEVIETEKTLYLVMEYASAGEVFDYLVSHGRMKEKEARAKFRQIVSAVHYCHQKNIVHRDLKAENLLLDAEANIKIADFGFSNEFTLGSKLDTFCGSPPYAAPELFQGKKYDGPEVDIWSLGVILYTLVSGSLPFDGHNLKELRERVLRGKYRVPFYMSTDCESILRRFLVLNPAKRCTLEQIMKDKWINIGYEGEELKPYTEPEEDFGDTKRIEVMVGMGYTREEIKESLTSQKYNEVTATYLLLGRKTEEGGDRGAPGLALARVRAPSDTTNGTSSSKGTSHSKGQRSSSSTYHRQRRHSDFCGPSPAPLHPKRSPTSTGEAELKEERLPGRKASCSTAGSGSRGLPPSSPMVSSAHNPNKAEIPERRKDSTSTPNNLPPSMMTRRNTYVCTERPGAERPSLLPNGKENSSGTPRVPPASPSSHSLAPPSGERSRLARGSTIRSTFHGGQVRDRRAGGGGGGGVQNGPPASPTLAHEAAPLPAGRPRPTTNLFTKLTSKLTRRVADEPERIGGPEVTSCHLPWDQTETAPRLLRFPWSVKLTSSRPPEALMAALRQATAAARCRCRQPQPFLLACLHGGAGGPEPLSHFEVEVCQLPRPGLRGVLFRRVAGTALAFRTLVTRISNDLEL

[4] = biological target: T2, panel of 255 wild-type kinases (Homo sapiens, UniProt Q8TDC3)
T2 sequence (Q8TDC3 1-778): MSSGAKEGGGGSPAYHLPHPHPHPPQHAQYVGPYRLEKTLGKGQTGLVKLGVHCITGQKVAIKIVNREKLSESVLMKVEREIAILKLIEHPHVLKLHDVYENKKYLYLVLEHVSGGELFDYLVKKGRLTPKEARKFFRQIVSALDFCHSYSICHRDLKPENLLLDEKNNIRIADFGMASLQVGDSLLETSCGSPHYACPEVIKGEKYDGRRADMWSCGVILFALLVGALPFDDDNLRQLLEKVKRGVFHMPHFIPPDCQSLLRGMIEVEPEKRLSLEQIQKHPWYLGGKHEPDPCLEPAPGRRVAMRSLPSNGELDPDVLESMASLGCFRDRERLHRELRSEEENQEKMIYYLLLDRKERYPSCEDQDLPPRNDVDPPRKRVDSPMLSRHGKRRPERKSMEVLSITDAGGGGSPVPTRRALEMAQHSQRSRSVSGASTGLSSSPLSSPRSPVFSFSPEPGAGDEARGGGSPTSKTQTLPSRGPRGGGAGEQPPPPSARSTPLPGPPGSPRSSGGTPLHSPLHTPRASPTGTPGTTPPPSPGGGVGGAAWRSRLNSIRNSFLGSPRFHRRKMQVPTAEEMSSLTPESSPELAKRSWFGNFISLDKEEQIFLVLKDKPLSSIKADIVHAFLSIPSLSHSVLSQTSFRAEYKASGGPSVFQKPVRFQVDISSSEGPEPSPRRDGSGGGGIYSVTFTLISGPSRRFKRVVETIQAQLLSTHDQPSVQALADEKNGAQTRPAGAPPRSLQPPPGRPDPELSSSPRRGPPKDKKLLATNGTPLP

[5] = biological target: T3, panel of 255 wild-type kinases (Homo sapiens, UniProt Q16832)
T3 sequence (Q16832 22-855): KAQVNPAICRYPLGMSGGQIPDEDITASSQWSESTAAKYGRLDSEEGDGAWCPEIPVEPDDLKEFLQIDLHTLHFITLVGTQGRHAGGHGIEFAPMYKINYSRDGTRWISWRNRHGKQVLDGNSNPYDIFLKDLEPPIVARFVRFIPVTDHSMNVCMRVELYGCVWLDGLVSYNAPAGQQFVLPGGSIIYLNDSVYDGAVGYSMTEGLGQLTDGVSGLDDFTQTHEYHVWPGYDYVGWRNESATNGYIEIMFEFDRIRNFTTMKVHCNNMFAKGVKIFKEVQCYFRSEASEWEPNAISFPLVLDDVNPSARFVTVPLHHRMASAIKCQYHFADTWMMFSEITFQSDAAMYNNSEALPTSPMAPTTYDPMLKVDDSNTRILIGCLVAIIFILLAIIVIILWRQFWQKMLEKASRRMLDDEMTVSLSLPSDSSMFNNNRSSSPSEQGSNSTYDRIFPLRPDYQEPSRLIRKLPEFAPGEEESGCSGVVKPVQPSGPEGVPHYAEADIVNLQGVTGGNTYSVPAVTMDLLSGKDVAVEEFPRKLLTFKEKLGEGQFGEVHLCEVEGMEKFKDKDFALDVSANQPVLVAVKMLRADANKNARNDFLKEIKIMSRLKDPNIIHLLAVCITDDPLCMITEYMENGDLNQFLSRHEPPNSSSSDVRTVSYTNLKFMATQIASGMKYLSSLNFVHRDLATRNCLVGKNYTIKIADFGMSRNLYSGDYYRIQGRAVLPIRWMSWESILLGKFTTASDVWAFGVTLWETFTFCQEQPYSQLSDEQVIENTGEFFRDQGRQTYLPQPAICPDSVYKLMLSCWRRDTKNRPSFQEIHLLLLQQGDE

[6] = biological target: panel of 255 wild-type kinases (Homo sapiens, UniProt P78362)
[7] = kinase FLT1, 1 µmol/L single concentration, ref DOI: 10.1158/1535-7163.MCT-18-0877
[8] = kinase PIM3, 1 µmol/L single concentration, ref DOI: 10.1158/1535-7163.MCT-18-0877
[9] = MARK4, 1 µmol/L single concentration, ref DOI: 10.1158/1535-7163.MCT-18-0877
[10] = BRSK1 kinase assay, 1 µmol/L single concentration, ref DOI: 10.1158/1535-7163.MCT-18-0877
[11] = kinase DDR2, 1 µmol/L single concentration, ref DOI: 10.1158/1535-7163.MCT-18-0877
[12] = kinase SRPK2, 1 µmol/L single concentration, ref DOI: 10.1158/1535-7163.MCT-18-0877
[13] = kinase FLT1, 1 µmol/L single concentration, ref DOI: 10.1371/journal.pone.0092146
[14] = kinase PIM3, 1 µmol/L single concentration, ref DOI: 10.1371/journal.pone.0092146
[15] = MARK4, 1 µmol/L single concentration, ref DOI: 10.1371/journal.pone.0092146
[16] = BRSK1 kinase assay, 1 µmol/L single concentration, ref DOI: 10.1371/journal.pone.0092146
[17] = kinase DDR2, 1 µmol/L single concentration, ref DOI: 10.1371/journal.pone.0092146
[18] = kinase SRPK2, 1 µmol/L single concentration, ref DOI: 10.1371/journal.pone.0092146

Compound: C=CC(=O)N1CCC[C@@H](n2nc(-c3ccc(Oc4ccccc4)cc3)c3c(N)ncnc32)C1 [ibrutinib]
- %-inhibition at 1 µmol/L, FLT1 [1, 7]: 73%
- %-inhibition at 1 µmol/L, PIM3 [2, 8]: -0.241%
- %-inhibition, MARK4 [3, 9]: -14%
- %-inhibition BRSK1 [4, 10]: -7%
- %-inhibition at 1 µmol/L, DDR2 [5, 11]: 17%
- %-inhibition at 1 µmol/L, SRPK2 [6, 12]: 3%

Compound: CC(=O)Nc1cccc(-n2c(=O)n(C3CC3)c(=O)c3c(Nc4ccc(I)cc4F)n(C)c(=O)c(C)c32)c1 [trametinib]
- %-inhibition at 1 µmol/L, FLT1 [1, 13]: -2.75%
- %-inhibition at 1 µmol/L, PIM3 [2, 14]: 8.44%
- %-inhibition, MARK4 [3, 15]: -15%
- %-inhibition BRSK1 [4, 16]: -6%
- %-inhibition at 1 µmol/L, DDR2 [5, 17]: 0.612%
- %-inhibition at 1 µmol/L, SRPK2 [6, 18]: -0.868%

Compound: Cc1cc(Nc2ncc(Cl)c(Nc3ccccc3S(=O)(=O)C(C)C)n2)c(OC(C)C)cc1C1CCNCC1 [ceritinib]
- %-inhibition at 1 µmol/L, FLT1 [1, 7]: 16%
- %-inhibition at 1 µmol/L, PIM3 [2, 8]: -0.463%
- %-inhibition, MARK4 [3, 9]: -2.63%
- %-inhibition BRSK1 [4, 10]: 32%
- %-inhibition at 1 µmol/L, DDR2 [5, 11]: 12%
- %-inhibition at 1 µmol/L, SRPK2 [6, 12]: 80%

Compound: C[C@@H](Oc1cc(-c2cnn(C3CCNCC3)c2)cnc1N)c1c(Cl)ccc(F)c1Cl [crizotinib]
- %-inhibition at 1 µmol/L, FLT1 [1, 13]: 53%
- %-inhibition at 1 µmol/L, PIM3 [2, 14]: -4%
- %-inhibition, MARK4 [3, 15]: 51%
- %-inhibition BRSK1 [4, 16]: 12%
- %-inhibition at 1 µmol/L, DDR2 [5, 17]: 88%
- %-inhibition at 1 µmol/L, SRPK2 [6, 18]: -2.33%

Compound: C=CC(=O)Nc1cc(Nc2nccc(-c3cn(C)c4ccccc34)n2)c(OC)cc1N(C)CCN(C)C [osimertinib]
- %-inhibition at 1 µmol/L, FLT1 [1, 7]: 9%
- %-inhibition at 1 µmol/L, PIM3 [2, 8]: 15%
- %-inhibition, MARK4 [3, 9]: -13%
- %-inhibition BRSK1 [4, 10]: -12%
- %-inhibition at 1 µmol/L, DDR2 [5, 11]: 25%
- %-inhibition at 1 µmol/L, SRPK2 [6, 12]: 3.77%

Compound: CCCS(=O)(=O)Nc1ccc(F)c(C(=O)c2c[nH]c3ncc(-c4ccc(Cl)cc4)cc23)c1F [vemurafenib]
- %-inhibition at 1 µmol/L, FLT1 [1, 13]: 25%
- %-inhibition at 1 µmol/L, PIM3 [2, 14]: -5%
- %-inhibition, MARK4 [3, 15]: 3.78%
- %-inhibition BRSK1 [4, 16]: -8%
- %-inhibition at 1 µmol/L, DDR2 [5, 17]: 69%
- %-inhibition at 1 µmol/L, SRPK2 [6, 18]: -2.2%

Compound: O=C(c1ccc(F)c(F)c1Nc1ccc(I)cc1F)N1CC(O)([C@@H]2CCCCN2)C1 [cobimetinib]
- %-inhibition at 1 µmol/L, FLT1 [1, 7]: -0.349%
- %-inhibition at 1 µmol/L, PIM3 [2, 8]: -0.814%
- %-inhibition, MARK4 [3, 9]: -15%
- %-inhibition BRSK1 [4, 10]: -13%
- %-inhibition at 1 µmol/L, DDR2 [5, 11]: 0.567%
- %-inhibition at 1 µmol/L, SRPK2 [6, 12]: 3%

Compound: CC(C)(C)c1nc(-c2cccc(NS(=O)(=O)c3c(F)cccc3F)c2F)c(-c2ccnc(N)n2)s1 [dabrafenib]
- %-inhibition at 1 µmol/L, FLT1 [1, 13]: 62%
- %-inhibition at 1 µmol/L, PIM3 [2, 14]: 9%
- %-inhibition, MARK4 [3, 15]: -27%
- %-inhibition BRSK1 [4, 16]: 37%
- %-inhibition at 1 µmol/L, DDR2 [5, 17]: 100%
- %-inhibition at 1 µmol/L, SRPK2 [6, 18]: 11%

Compound: CO[C@@H]1[C@H](N(C)C(=O)c2ccccc2)C[C@H]2O[C@]1(C)n1c3ccccc3c3c4c(c5c6ccccc6n2c5c31)C(=O)NC4 [midostaurin]
- %-inhibition at 1 µmol/L, FLT1 [1, 7]: 95%
- %-inhibition at 1 µmol/L, PIM3 [2, 8]: 71%
- %-inhibition, MARK4 [3, 9]: 101%
- %-inhibition BRSK1 [4]: 95%
- %-inhibition at 1 µmol/L, DDR2 [5, 11]: 97%
- %-inhibition at 1 µmol/L, SRPK2 [6, 12]: 25%

Compound: CC#CC(=O)N1CCC[C@H]1c1nc(-c2ccc(C(=O)Nc3ccccn3)cc2)c2c(N)nccn12 [acalabrutinib]
- %-inhibition at 1 µmol/L, FLT1 [1, 7]: -1.14%
- %-inhibition at 1 µmol/L, PIM3 [2, 8]: -0.0376%
- %-inhibition, MARK4 [3, 9]: -15%
- %-inhibition BRSK1 [4, 10]: -1.79%
- %-inhibition at 1 µmol/L, DDR2 [5, 11]: 6%
- %-inhibition at 1 µmol/L, SRPK2 [6, 12]: 0.686%

Compound: CCc1cc2c(cc1N1CCC(N3CCOCC3)CC1)C(C)(C)c1[nH]c3cc(C#N)ccc3c1C2=O [alectinib]
- %-inhibition at 1 µmol/L, FLT1 [1, 7]: 2.23%
- %-inhibition at 1 µmol/L, PIM3 [2, 8]: 52%
- %-inhibition, MARK4 [3, 9]: -3%
- %-inhibition BRSK1 [4, 10]: 8.48%
- %-inhibition at 1 µmol/L, DDR2 [5, 11]: 8%
- %-inhibition at 1 µmol/L, SRPK2 [6, 12]: 93%

Compound: COc1cc(N2CCC(N3CCN(C)CC3)CC2)ccc1Nc1ncc(Cl)c(Nc2ccccc2P(C)(C)=O)n1 [brigatinib]
- %-inhibition at 1 µmol/L, FLT1 [1]: 74%
- %-inhibition at 1 µmol/L, PIM3 [2]: 5.69%
- %-inhibition, MARK4 [3]: 101%
- %-inhibition BRSK1 [4]: 84%
- %-inhibition at 1 µmol/L, DDR2 [5]: 60%
- %-inhibition at 1 µmol/L, SRPK2 [6]: 10%
